Key:
[1] = tested on: MHC Class II expression across multiple cell lines; assay: FACS detection of MHC II on human and murine tumor cell lines; assay type: cell-based; conditions: 72 hours treatment (FIG. 1)
Procedure: (§1) Cell Culture and Compound Treatment for MHC II Induction
(§2) Human and murine tumor cell lines were obtained from the Shanghai Institutes for Biological Sciences (SIBS) or American Type Culture Collection (ATCC) and maintained in a humidified 5% CO2 incubator at 37° C. All of the human cell lines were derived from human B cell lymphomas: OCI-Ly19, OCI-Ly7, OCI-Ly18, RL, SU-DHL6, and MD901. The murine tumor cell lines were of varied origin: CT-26 (colon carcinoma), RENCA (renal cell carcinoma), P388D1 (lymphoblast of monocytes and macrophages), MPC-11 (plasmacytoma, myeloma), L5178 (thymic lymphoma), and J588 (plasmacytoma, myeloma).
(§3) On Day 0, T25 flasks were seeded at the following cell densities:
(§4) On Day 1, cells were treated with I-1 compound diluted in DMSO/PBS (final concentration of DMSO in the media was 0.19%). The cells were treated with I-1 compound for 72 hours. The adherent cells were dissociated with 1 mL/T25 flask of Cell Dissociation buffer (GIBCO) at 37° C. Four mL of culture media was added to each flask, samples were aliquoted FACS analysis. […]
(§5) Cells were counted to determine cell number and viability with Vi-cell (Beckman). […]
(§6) Cells were incubated for 1 hour at 4° C., protected from light. […] Samples were analyzed immediately using FACS machine. The data were analyzed with BD Accuri C6 software and FlowJo_V10.

[2] = tested on: Twenty-six syngeneic cells lines; assay: viability of syngeneic cell lines; assay type: cell-based; conditions: 10 μM
plasma exposure (PK) = assay type: in vivo; conditions: FIG. 13
Procedure: 1) For pharmacokinetics (PK): 2 hrs after the first treatment, satellite time point (Day 11) and after the final time point (Day 14) 100 μl blood was collected from the I-1 treatment groups (3 mice/group), then centrifuged to get about 50 μl plasma for PK analysis.

HDAC1 = HDAC1 (Homo sapiens (Human), UniProt Q13547); assay: non-trypsin coupled in-vitro HDAC enzymatic endpoint assay (Caliper LabChip EZ-Reader); assay type: biochemical; conditions: 3 hrs preincubation, Substrate A 2 μM
Procedure: (§7) In some experiments, the following non-trypsin coupled in-vitro HDAC enzymatic endpoint assay was used to assay the compounds described herein. Below is a standardized protocol for running HDAC selectivity panel on Caliper LabChip EZ-Reader Instrument.
(§8) Substrate A was prepared as 2 mM in DMSO. Its final concentration in the assay for HDACs 1,2,3,6 is 2 μM.
(§9) LBH was used as quench inhibitor to stop the reaction at the end point.
(§10) The protocol was carried out as follows: • 1. Caliper LabChip and 1 μM Marker (peptide substrate in separation buffer) were prepared for instrument run. • 2. Warm up Caliper HAB buffer to room temperature • 3. […] Add 10 μl 3× solution acetylated substrate to initiate the reaction for 50 minutes. • 5. […] Mix plate • 7. Read plate on EZ Reader instrument. Separate substrate and product peaks by capillary electrophoresis and read fluorescence from both substrate and product. • 8. Run parameters were as follows:

HDAC3 = HDAC3 (Homo sapiens (Human), UniProt O15379); assay: as above; assay type: biochemical; conditions: 3 hrs preincubation, Substrate A 2 μM
Procedure: as §7, §8, §9, §10

[3] = tested on: MHC class II (IA-IE) in RENCA cells; assay: in vitro induction of MHC class II (IA-IE) in RENCA cells (FACS); assay type: cell-based, murine
Procedure: as §1, §2, §3, §4, §5, §6

HDAC2 = HDAC2 (Homo sapiens (Human), UniProt Q92769); assay: non-trypsin coupled in-vitro HDAC enzymatic endpoint assay (Caliper LabChip EZ-Reader); assay type: biochemical; conditions: 3 hrs preincubation, Substrate A 2 μM
Procedure: as §7, §8, §9, §10

[4] = tolerability and exposure relative to NOAEL
[5] = tested on: P388D1 cells and RENCA cells; assay: cytotoxicity, percent of viable cells; assay type: cell-based, murine; conditions: various concentrations (FIG. 4)
[6] = tested on: MHC class II (IA-IE) in P388D1 cells; assay: in vitro induction of MHC class II (IA-IE) in P388D1 cells (FACS); assay type: cell-based, murine
Procedure: as §1, §2, §3
On Day 1, cells were treated with I-1 compound diluted in DMSO/PBS (final concentration of DMSO in the media was 0.19%). The cells were treated with I-1 compound for 72 hours. The adherent cells were dissociated with 1 mL/T25 flask of Cell Dissociation buffer (GIBCO) at 37° C. Four mL of culture media was added to each flask, samples were aliquoted FACS analysis. For suspension cells, samples were aliquoted into 50 mL conical tubes for FACS analysis.
FACS Detection of MHC II on Human and Murine Cells (IA/IE on Murine Cells)
Cells were counted to determine cell number and viability with Vi-cell (Beckman). After washing once with 10 mL cold FACS staining buffer (PBS+0.2% BSA), liquid was aspirated and the cells were resuspended in enough cold FACS staining buffer to reach a final cell density of ˜1×10^7 viable cells/mL. 50 μL/well (˜500 k/well) of cells were added to a 96-well u-bottomed plate and the cells were stained as follows, according to manufacturer's instructions: • Sample 1: Unstained • Sample 2: stained with anti MHC II antibody (PE anti-human HLA-DR, Clone: G46-6, Becton Dickinson; PE anti-mouse I-A/I-E, Clone: M5/114.15.2, Becton Dickinson) • Sample 3: stained with isotype control
as §6

Sequence of HDAC3 (O15379 whole entry, species assumed): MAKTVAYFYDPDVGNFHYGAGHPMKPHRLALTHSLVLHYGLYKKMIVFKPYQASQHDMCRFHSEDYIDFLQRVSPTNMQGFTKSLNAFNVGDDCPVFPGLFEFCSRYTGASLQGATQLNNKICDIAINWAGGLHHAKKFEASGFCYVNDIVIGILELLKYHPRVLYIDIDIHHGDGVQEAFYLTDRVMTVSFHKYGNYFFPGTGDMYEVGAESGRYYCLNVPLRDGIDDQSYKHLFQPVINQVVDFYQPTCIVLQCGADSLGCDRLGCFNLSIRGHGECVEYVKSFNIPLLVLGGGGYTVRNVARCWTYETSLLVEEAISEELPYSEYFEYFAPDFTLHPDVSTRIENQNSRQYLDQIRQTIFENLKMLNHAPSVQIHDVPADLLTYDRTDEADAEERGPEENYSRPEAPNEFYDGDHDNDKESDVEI
Sequence of HDAC3 (Q9Y618 395-489 partner, species assumed): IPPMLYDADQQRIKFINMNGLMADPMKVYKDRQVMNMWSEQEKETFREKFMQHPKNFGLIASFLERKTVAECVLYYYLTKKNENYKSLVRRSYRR
Sequence of HDAC2 (Q92769 whole entry, species assumed): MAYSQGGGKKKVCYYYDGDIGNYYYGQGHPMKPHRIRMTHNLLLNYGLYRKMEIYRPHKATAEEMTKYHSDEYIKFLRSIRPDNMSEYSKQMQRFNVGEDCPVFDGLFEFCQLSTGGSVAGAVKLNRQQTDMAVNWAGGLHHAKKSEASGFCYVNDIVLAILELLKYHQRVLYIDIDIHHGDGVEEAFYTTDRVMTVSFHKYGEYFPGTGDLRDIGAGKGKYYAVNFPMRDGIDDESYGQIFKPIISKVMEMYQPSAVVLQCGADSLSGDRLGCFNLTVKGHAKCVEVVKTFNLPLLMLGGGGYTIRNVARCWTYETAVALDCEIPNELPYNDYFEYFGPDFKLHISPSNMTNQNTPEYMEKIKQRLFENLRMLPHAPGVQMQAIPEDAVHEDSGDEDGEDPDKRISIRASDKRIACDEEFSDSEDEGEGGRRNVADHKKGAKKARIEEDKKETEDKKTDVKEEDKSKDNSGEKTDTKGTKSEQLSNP
Sequence of HDAC1 (Q13547 whole entry, species assumed): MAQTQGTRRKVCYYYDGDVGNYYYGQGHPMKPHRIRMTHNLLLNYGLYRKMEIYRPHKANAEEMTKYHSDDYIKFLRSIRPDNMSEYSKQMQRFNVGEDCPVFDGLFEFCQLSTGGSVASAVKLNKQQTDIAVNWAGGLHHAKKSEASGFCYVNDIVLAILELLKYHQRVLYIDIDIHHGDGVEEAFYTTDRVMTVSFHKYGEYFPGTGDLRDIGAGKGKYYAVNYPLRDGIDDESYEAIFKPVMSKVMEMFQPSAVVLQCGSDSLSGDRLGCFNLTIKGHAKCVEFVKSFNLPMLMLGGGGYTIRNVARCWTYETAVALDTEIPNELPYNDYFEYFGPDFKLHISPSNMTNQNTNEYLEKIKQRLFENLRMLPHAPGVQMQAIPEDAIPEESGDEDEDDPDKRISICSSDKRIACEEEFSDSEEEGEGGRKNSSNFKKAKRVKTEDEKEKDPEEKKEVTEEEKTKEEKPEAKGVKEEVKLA

| SMILES | increase in MHC Class II expression [1] | impact on viability [2] | plasma exposure (plasma exposure (PK)) | IC50 (HDAC1) [nM] | IC50 (HDAC3) [nM] | fold more cells positive for MHC class II (IA-IE) ([3]; 1 μM I-1) | fold more cells positive for MHC class II (IA-IE) ([3]; 3 μM I-1) | IC50 (HDAC2) [nM] | tolerability ([4]; 25 and 50 mg/kg, orally, BID) | tolerated exposures relative to tolerated dose of a clinical HDAC 1,2,3 inhibitor ([4]; FIG. 13) | levels showing efficacy relative to NOAEL (no adverse effect level) ([4]; rat NOAEL, FIG. 13) | cytotoxicity (percent of viable cells) [5] | fold more cells positive for MHC class II (IA-IE) ([6]; 120 nM I-1) | fold more cells positive for MHC class II (IA-IE) ([6]; 3 μM I-1) | MHC class II protein levels (geometric mean MFI) ([6]; various concentrations (FIGS. 14 and 15)) |
| --- | --- | --- | --- | --- | --- | --- | --- | --- | --- | --- | --- | --- | --- | --- | --- |
| CC(=O)Nc1ccc(C(=O)Nc2ccc(F)cc2N)cc1 [Compound I-1] | 20-100% | minimal impact on viability | above K, and below NOAEL | 2190 | 61 | about 2 × | about 6 × | 1510 | well tolerated | greater than 4 × | below rat NOAEL | generally not cytotoxic | about 4 × | about 13 × | – |
| Nc1cc(F)ccc1NC(=O)/C=C/c1cnn(C/C=C/c2ccccc2)c1 [RGFP966, reference compound] | – | – | – | – | – | – | – | – | – | – | – | – | – | – | capable of increasing MHC class II protein levels |

From US12128018B2, “Combination of a selective histone deacetylase 3 (HDAC3) inhibitor and an immunotherapy agent for the treatment of cancer” (KDAc Therapeutics, Inc., priority 2018, dated 2024)
